Measurements taken from paper PMC8011931, “Identification, Structure–Activity Relationship, and Biological Characterization of 2,3,4,5-Tetrahydro-1H-pyrido[4,3-b]indoles as a Novel Class of CFTR Potentiators” (Journal of Medicinal Chemistry, 2020).

Assays:
[1] = target: F508del-CFTR (Homo sapiens, UniProt P13569, DEL508-508); experiment: HS-YFP-based assay for CFTR activity on F508del-CFTR FRT cells rescued at 32 °C for 24 h; assay type: cell-based; design: expressed in transfected cells; key to Emax: fold increase in F508del-CFTR rescue relative to hit 3 (normalized); conditions: for EC50: F508del-CFTR FRT cells rescued at 32 °C for 24 h, plus forskolin; for Emax: supplementary csv, same data as Tables 1–3
Chain of F508del-CFTR (P13569 with tags, fused parts or gaps DEL508-508): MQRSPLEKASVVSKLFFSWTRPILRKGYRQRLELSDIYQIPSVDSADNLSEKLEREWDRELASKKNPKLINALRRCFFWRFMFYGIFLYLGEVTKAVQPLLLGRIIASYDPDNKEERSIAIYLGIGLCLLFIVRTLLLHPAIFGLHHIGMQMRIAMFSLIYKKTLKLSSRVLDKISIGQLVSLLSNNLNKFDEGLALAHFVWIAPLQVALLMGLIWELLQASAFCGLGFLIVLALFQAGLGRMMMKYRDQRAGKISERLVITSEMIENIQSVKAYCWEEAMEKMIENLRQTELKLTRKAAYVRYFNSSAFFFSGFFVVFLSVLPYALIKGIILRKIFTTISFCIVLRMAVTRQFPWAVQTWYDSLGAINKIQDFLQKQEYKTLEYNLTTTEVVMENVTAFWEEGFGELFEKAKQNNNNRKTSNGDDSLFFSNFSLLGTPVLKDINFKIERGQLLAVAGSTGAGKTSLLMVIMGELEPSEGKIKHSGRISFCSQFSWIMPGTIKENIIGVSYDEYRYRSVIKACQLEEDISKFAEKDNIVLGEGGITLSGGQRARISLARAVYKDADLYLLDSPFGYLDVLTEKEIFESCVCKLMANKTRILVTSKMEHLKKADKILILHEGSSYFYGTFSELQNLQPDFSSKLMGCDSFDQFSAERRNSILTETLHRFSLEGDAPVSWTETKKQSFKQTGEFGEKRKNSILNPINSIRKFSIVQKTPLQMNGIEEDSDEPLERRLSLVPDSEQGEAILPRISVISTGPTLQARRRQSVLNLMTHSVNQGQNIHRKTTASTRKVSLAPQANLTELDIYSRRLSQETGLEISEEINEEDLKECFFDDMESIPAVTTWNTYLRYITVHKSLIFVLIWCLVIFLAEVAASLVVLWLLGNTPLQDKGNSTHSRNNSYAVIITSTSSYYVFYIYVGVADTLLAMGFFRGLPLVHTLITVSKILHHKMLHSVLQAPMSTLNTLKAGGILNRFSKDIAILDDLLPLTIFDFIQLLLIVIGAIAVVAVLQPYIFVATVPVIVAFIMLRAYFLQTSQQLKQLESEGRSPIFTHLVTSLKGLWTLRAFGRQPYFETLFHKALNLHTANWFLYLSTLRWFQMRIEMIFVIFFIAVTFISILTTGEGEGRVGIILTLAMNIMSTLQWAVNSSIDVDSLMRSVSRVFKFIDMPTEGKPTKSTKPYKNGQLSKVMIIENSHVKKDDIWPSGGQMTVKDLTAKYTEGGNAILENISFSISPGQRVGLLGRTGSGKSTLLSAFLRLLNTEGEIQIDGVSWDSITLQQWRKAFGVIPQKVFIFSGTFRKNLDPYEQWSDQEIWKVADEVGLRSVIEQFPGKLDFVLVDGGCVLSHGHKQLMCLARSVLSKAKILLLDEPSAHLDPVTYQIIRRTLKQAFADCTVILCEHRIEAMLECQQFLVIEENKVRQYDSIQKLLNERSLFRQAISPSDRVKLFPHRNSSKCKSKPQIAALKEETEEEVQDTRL
In short: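 FRT cells co-expressing F508del-CFTR and HS-YFP (H148Q/I152L) were rescued 24 h at 32 °C, then exposed to compound plus forskolin (10 or 20 μM) for about 25 min in PBS. Iodide injection (100 mM final) quenched YFP (ex 500/em 535 nm). The initial dF/dt gave activity, fitted for EC50 and for Emax relative to a reference hit.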

[2] = Liver microsomal stability, phase I (NADPH), rat; assay type: in vitro ADME; conditions: for half-life at 1 h, 4.6 µM / half-life at 4.6 μM: rat, liver microsomes, pH 7.5, 0.1% DMSO, n ≥ 3, read-out: rat LM_NADPH t1/2; for rat LM_NADPH parent compound remaining at the last time point (in parentheses): 4.6 μM, 60 min
Method: (§1) Phase I: 10 mM DMSO stock solution of the test compound was preincubated at 37 °C for 15 min with rat, dog, or human liver microsomes in 0.1 M Tris–HCl buffer (pH 7.5) with 10% DMSO. The final concentration was 4.6 μM. After preincubation, the cofactors (NADPH, G6P, G6PDH, and MgCl2 predissolved in 0.1 M Tris–HCl) were added to the incubation mixture and the incubation was continued at 37 °C for 1 h.
(§2) For both phase I and II studies: At each time point (0, 5, 15, 30, and 60 min), 30 μL of the incubation mixture was diluted with 200 μL of cold CH3CN spiked with 200 nM of an appropriate internal standard, followed by centrifugation at 3270g for 15 min. The supernatant was further diluted with H2O (1:1) for analysis. A reference incubation mixture (microsomes without cofactors) was prepared for each test compound and analyzed at t = 0 and 60 min in order to verify the compound’s stability in the matrix. The two time points were diluted as for the time points of the incubation mixture above. The supernatants were analyzed by LC/MS–MS on a Waters ACQUITY UPLC/MS TQD system consisting of a TQD (triple quadrupole detector) mass spectrometer equipped with an electrospray ionization interface and a photodiode array eλ detector. Electrospray ionization was applied in positive mode. Compound-dependent parameters as MRM transitions and collision energy were developed for each compound. The analyses were run on an ACQUITY UPLC BEH C18 (50 × 2.1 mm ID, particle size 1.7 μm) with a VanGuard BEH C18 precolumn (5 × 2.1 mm ID, particle size 1.7 μm) at 40 °C, using H2O + 0.1% HCOOH (A) and CH3CN + 0.1% HCOOH (B) as the mobile phase. The percentage of test compound remaining at each time point relative to t = 0 was calculated by the response factor on the basis of the internal standard peak area. The percentage of test compound versus time was plotted and fitted by GraphPad Prism (GraphPad Software, Version 5 for Windows, CA, USA, www.graphpad.com) to estimate the compound’s half-life (t1/2), which was reported as mean value along with the standard deviation (n = 3).

[3] = Liver microsomal stability, phase I (NADPH), human; assay type: in vitro ADME; conditions: for half-life at 1 h, 4.6 µM / half-life at 4.6 μM: human, liver microsomes, pH 7.5, 0.1% DMSO, n ≥ 3, read-out: human LM_NADPH t1/2; for human LM_NADPH parent compound remaining at the last time point (in parentheses): 4.6 μM, 60 min
Method: as §1, §2

[4] = Liver microsomal stability, phase II (UDPGA), human; assay type: in vitro ADME; conditions: for human LM_UDPGA parent compound remaining at the last time point (in parentheses): 4.6 μM, 60 min; for half-life at 4.6 μM: human, liver microsomes, pH 7.5, 0.1% DMSO, n ≥ 3, read-out: human LM_UDPGA t1/2
Method: as §1, with “II:” for “I:”, “with” for “with rat, dog, or”, “microsomes added alamethicin” for “microsomes”, “(UDPGA, D-saccharic acid lactone,” for “(NADPH, G6P, G6PDH,”
as §2

[5] = mean ± SD (n = 3–6), n.a.: not active (up to 20 μM)

| SMILES | EC50 [1, 5] [µM] | Emax [1] | half-life at 1 h, 4.6 µM [2] [min] | half-life at 1 h, 4.6 µM [3] [min] | Emax (FRT F508del-CFTR) ([1]; normalized for the activity of analogue 3, mean ± SD (n = 3–6), n.a.: not active (up to 20 μM)) | rat LM_NADPH parent compound remaining at the last time point (in parentheses) [2] [%] | half-life at 4.6 μM [2] [min] | human LM_NADPH parent compound remaining at the last time point (in parentheses) [3] | half-life at 4.6 μM [3] [min] | fold increase in potency compared to hit 3 ([1]; EC50, F508del-CFTR FRT cells) | human LM_UDPGA parent compound remaining at the last time point (in parentheses) [4] [%] | half-life at 4.6 μM [4] [min] | activity on F508del-CFTR FRT cells (in words) [1] | activity compared to VX-770 ([1]; tested at 10 and 1 nM, Figure 6A) |
| --- | --- | --- | --- | --- | --- | --- | --- | --- | --- | --- | --- | --- | --- | --- |
| COc1ccc2[nH]c3c(c2c1)CN(C(=O)c1cc(C(F)(F)F)[nH]n1)CC3 [Compound 3, (8-Methoxy-1,3,4,5-tetrahydropyrido[4,3-b]indol-2-yl)-[5-(trifluoromethyl)-1H-pyrazol-3-yl]methanone] | 0.35 ± 0.13 | 1 ± 0.04 | 30 ± 1 | 42 ± 11 | – | – | – | – | – | – | – | – | – | – |
| O=C(c1cc(C(F)(F)F)[nH]n1)N1CCc2[nH]c3c(F)cccc3c2C1 [Compound 20, (6-Fluoro-1,3,4,5-tetrahydro-2H-pyrido[4,3-b]indol-2-yl)-(5-(trifluoromethyl)-1H-pyrazol-3-yl)methanone] | 0.096 ± 0.021 | 0.96 ± 0.06 | – | – | 0.96 ± 0.06 | 64 | > 60 | 78% | > 60 | – | – | – | – | – |
| COc1cc(F)c2[nH]c3c(c2c1)CN(C(=O)c1cc(C(F)(F)F)[nH]n1)CC3 [Compound 25, (6-Fluoro-8-methoxy-1,3,4,5-tetrahydro-2H-pyrido[4,3-b]indol-2-yl)-(5-(trifluoromethyl)-1H-pyrazol-3-yl)methanone] | 0.13 ± 0.06 | 1.15 ± 0.13 | 20 ± 1 | 33 ± 1 | – | – | – | – | – | – | – | – | – | – |
| O=C(c1cc(C(F)(F)F)[nH]n1)N1CCc2[nH]c3c(F)ccc(F)c3c2C1 [Compound 29, (6,9-Difluoro-1,3,4,5-tetrahydro-2H-pyrido[4,3-b]indol-2-yl)-(5-(trifluoromethyl)-1H-pyrazol-3-yl)methanone] | 0.15 ± 0.08 | 1.19 ± 0.15 | 50 ± 9 | – | – | – | – | >60 (60) % | > 60 | – | – | – | – | – |
| Cc1ccc(F)c2[nH]c3c(c12)CN(C(=O)c1cc(C(F)(F)F)[nH]n1)CC3 [Compound 30, (6-Fluoro-9-methyl-1,3,4,5-tetrahydro-2H-pyrido[4,3-b]indol-2-yl)-(5-(trifluoromethyl)-1H-pyrazol-3-yl)methanone] | 0.06 ± 0.03 | 1.00 ± 0.09 | 32 ± 1 | 53 ± 2 | – | – | – | – | – | more than 6 fold | 75 | > 60 | – | – |
| Cc1ccc(F)c2[nH]c3c(c12)CN(C(=O)c1cc(C(F)(F)F)[nH]n1)[C@H](C)C3 [Compound 39, (R)-(6-Fluoro-3,9-dimethyl-1,3,4,5-tetrahydro-2H-pyrido[4,3-b]indol-2-yl)-(5-(trifluoromethyl)-1H-pyrazol-3-yl)methanone] | 0.017 ± 0.007 | 1.30 ± 0.12 | – | – | – | 70 | > 60 | 71% | > 60 | – | 79 | > 60 | the most potent analogue | slightly lower activity than VX-770 |
